This is an account of results in ChEMBL document CHEMBL5214954, “Identification of PI3K/HDAC Dual-targeted inhibitors with subtype selectivity as potential therapeutic agents against solid Tumors: Building HDAC6 potency in a Quinazolinone-based PI3Kδ-selective template” (Bioorg Med Chem, 2022).

The target of series [1] is T1, Phosphatidylinositol 4,5-bisphosphate 3-kinase catalytic subunit delta isoform (Homo sapiens, UniProt O00329).
T1 sequence (O00329 whole entry): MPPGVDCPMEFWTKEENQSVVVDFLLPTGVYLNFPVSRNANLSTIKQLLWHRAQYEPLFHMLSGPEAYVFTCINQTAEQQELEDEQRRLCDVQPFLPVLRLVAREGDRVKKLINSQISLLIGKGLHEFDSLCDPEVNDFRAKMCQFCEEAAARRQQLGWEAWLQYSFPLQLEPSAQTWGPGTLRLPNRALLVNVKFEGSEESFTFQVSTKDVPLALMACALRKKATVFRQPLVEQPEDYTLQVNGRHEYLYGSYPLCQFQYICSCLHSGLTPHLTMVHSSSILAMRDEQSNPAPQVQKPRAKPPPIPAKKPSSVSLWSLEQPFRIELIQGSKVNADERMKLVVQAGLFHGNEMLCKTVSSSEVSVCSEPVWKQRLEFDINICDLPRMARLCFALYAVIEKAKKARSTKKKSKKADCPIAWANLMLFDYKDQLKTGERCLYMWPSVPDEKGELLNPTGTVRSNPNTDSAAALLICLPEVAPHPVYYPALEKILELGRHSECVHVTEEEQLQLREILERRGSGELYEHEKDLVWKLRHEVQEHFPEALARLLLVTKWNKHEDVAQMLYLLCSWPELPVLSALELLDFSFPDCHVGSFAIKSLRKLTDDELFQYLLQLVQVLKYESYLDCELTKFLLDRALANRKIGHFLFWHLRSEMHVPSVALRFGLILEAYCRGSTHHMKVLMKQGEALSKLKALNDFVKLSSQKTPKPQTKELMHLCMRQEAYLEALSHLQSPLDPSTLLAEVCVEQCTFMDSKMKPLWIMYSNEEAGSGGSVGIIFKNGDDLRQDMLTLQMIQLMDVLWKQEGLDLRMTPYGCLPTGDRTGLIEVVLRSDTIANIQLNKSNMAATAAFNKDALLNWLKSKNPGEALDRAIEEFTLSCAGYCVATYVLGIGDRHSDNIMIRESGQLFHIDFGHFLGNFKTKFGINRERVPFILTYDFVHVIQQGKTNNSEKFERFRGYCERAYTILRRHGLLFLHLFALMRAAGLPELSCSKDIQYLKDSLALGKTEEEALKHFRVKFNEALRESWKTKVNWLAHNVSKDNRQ
The series can be described thus: Inhibition of PI3Kdelta (unknown origin) measured by ADP-Glo assay. For orientation: ADP-Glo first removes unused ATP, then detects ADP through luciferase.

The test system of the next series is KM12. The series can be described thus: Antiproliferative activity against human KM12 cells incubated for 72 hrs by CCK-8 assay. The class given is functional, cell-based. The conditions noted are these: KM12, 72 h. A general note: Tetrazolium dyes change colour on reduction, which living cells bring about.
In a further series the test system is HCT-116. In words: Antiproliferative activity against human HCT-116 cells incubated for 72 hrs by CCK-8 assay. The class given is functional, cell-based. The conditions noted are these: HCT-116, 72 h.
In series [2] the test system is T47D. In words: Antiproliferative activity against human T47D cells incubated for 72 hrs by CCK-8 assay. The format is functional, cell-based.
Series [3] addresses Phosphatidylinositol 4,5-bisphosphate 3-kinase catalytic subunit alpha isoform (Homo sapiens, UniProt P42336). The series can be described thus: Inhibition of PI3Kalpha (unknown origin) measured by ADP-Glo assay.
Series [4] deals with Phosphatidylinositol 4,5-bisphosphate 3-kinase catalytic subunit gamma isoform (Homo sapiens, UniProt P48736). In words: Inhibition of PI3Kgamma (unknown origin) measured by ADP-Glo assay.
The species entered for a further series is Homo sapiens. The series can be described thus: Selectivity ratio, ratio IC50 for inhibition of PI3Kgamma (unknown origin) to IC50 for inhibition of PI3Kdelta (unknown origin).
The subject of series [5] is T47D. In words: Downregulation of pAKT expression in human T47D cells at 10 to 1000 nM measured by western blot analysis. The format is functional, cell-based. The conditions noted are these: dose 10-1000 nM, DDE = dose-dependent effect. For orientation: A western blot detects proteins with antibodies after separation by electrophoresis.
The test system of series [6] is T47D. In words: Downregulation of PD-L1 expression in human T47D cells at 10 to 1000 nM measured by western blot analysis. The format is functional, cell-based. The conditions noted are these: dose 10-1000 nM, DDE = dose-dependent effect.
Series [7] in a line: Clearance in male Sprague-Dawley rat at 2 mg/kg, iv measured upto 24 hrs by LC-MS/MS analysis. The format is ADME, organism-based. The conditions noted are these: in vivo.
The target in another series is Histone deacetylase 1 (Homo sapiens, UniProt Q13547).
The target in another series is T2, Histone deacetylase 11 (Homo sapiens, UniProt Q96DB2).
T2 sequence (Q96DB2 whole entry): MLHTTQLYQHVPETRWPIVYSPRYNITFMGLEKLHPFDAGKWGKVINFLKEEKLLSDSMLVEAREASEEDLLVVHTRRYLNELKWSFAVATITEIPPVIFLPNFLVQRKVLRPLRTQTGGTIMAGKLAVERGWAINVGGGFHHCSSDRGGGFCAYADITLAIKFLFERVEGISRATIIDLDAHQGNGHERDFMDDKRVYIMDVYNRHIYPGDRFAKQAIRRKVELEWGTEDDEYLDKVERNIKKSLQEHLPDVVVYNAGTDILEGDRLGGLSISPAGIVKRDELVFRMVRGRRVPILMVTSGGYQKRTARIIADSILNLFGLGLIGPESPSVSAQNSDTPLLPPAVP

Sequence of Phosphatidylinositol 4,5-bisphosphate 3-kinase catalytic subunit gamma isoform (P48736 whole entry, canonical isoform): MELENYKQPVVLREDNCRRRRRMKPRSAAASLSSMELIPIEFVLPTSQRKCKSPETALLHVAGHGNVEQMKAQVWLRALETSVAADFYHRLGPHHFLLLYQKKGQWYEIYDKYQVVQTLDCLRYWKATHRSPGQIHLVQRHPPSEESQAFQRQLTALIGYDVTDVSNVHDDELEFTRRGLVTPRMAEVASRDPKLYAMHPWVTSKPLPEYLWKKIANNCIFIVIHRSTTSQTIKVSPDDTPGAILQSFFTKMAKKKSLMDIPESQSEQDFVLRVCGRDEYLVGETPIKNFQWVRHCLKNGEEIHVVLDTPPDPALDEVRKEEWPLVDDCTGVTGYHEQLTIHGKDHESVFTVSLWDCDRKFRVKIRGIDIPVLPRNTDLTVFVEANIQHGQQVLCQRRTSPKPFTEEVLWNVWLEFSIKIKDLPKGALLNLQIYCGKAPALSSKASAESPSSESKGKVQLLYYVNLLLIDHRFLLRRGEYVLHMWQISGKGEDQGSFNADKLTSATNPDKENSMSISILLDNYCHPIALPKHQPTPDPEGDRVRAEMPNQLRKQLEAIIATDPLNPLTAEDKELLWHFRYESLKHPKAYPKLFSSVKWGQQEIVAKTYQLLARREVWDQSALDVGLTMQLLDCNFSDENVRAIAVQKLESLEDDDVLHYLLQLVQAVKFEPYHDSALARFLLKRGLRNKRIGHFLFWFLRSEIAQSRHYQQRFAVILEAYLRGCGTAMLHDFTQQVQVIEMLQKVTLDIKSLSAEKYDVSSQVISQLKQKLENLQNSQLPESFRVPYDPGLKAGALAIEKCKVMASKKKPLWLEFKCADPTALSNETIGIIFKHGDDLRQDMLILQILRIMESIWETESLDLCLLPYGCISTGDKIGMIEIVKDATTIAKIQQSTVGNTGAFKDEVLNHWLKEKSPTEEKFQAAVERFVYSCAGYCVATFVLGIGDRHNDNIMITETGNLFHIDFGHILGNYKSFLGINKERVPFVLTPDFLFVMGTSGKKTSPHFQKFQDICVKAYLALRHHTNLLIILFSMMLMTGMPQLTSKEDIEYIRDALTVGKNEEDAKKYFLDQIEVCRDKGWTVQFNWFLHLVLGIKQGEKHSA
Sequence of Phosphatidylinositol 4,5-bisphosphate 3-kinase catalytic subunit alpha isoform (P42336 whole entry, canonical isoform): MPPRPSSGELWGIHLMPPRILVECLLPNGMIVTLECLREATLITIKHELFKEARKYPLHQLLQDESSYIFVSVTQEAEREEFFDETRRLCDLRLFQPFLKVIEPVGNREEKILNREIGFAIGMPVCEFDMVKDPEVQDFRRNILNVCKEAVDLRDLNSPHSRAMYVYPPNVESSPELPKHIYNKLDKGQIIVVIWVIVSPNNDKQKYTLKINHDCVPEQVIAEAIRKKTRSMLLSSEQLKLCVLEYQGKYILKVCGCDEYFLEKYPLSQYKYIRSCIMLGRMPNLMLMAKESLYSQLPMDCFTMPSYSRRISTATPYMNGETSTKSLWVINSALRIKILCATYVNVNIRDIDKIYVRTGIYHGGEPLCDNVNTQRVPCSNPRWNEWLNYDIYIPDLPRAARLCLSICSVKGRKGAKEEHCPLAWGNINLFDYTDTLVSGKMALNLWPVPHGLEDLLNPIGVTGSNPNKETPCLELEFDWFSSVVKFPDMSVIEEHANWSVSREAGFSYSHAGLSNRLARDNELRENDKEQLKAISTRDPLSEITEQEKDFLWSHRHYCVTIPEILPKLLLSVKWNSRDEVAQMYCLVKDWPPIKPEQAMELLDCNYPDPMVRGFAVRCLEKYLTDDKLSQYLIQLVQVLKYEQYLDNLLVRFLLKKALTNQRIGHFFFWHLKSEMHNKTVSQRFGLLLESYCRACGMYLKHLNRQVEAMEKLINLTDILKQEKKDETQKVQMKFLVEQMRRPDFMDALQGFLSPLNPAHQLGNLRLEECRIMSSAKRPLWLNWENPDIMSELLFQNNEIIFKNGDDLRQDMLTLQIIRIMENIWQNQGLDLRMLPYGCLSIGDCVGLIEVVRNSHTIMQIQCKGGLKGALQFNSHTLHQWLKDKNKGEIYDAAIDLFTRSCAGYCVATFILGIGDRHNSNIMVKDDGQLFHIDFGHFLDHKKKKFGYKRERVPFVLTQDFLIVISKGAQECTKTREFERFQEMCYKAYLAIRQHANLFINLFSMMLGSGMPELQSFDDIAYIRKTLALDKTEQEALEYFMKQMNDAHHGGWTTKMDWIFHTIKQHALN
Sequence of Histone deacetylase 1 (Q13547 whole entry): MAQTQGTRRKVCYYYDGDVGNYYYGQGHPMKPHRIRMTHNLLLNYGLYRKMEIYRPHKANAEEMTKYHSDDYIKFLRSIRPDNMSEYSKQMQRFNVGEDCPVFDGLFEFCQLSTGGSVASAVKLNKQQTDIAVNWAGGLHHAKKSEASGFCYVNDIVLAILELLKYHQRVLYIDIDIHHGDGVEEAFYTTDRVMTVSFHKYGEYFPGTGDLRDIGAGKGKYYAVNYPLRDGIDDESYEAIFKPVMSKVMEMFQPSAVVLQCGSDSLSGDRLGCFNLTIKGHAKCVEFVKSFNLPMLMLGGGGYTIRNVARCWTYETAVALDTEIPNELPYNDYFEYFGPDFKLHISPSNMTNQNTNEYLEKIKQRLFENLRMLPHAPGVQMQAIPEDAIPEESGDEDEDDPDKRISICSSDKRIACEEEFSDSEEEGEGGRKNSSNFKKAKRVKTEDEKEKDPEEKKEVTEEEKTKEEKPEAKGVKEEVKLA
Description for Histone deacetylase 11: Inhibition of HDAC11 (unknown origin) measured by fluorescence based assay

Broadly, the IC50 is the concentration that inhibits the measured activity by half. Usually clearance stands for the rate of elimination divided by the concentration. A low value points to a low capacity for elimination. In the case of `N#Cc1c(N)nc(N)nc1N1CC2(CC2)C[C@H]1c1nc2cccc(Cl)c2c(=O)n1Cc1ccc(C(=O)NO)s1`, the IC50 in [1] is 2.3 nM; with KM12, 1190 nM; in the series with HCT-116, 800 nM; in the series on T47D [2], 42 nM; in [3], 169 nM; in series [4], 30.5 nM. In addition, the results for the IC50 against Histone deacetylase 1 and against Histone deacetylase 11 were 230 nM and 1550 nM, respectively. Moreover, in the series filed under Homo sapiens, the Ratio IC50 came to 13. Besides, the Activity result in the series with T47D [5] and in the series with T47D [6] was “Dde” throughout. The clearance in series [7] is 53 mL/min/kg.
